Experimental data published in PMC4482062 (Nucleic Acids Research, 2015).
Values joined by “and” are separate entries in the source; they are usually repeats but may differ in a detail not shown here. Identical values can stand only once.

What was measured:
CmoB R315A mutant = molecular target: T1, CmoB R315A mutant (Escherichia coli, UniProt P76291, R315A); experiment: Isothermal titration calorimetry, R315A mutant CmoB; format: binding
T1 construct: vector LIC-pET30a) (cleaved yes); made in house; host or cells: Escherichia coli BL21 (DE3)
T1 sequence (P76291 whole entry R315A): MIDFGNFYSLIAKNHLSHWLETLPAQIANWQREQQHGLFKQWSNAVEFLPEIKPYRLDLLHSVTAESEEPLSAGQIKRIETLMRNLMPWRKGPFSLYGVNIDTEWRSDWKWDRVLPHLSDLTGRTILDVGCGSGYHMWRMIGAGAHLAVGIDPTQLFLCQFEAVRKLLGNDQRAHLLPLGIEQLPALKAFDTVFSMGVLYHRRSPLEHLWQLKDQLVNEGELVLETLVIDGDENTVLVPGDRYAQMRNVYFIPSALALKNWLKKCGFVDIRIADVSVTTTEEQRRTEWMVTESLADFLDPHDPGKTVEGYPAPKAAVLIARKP
Description: (§1) CmoB was extensively dialyzed for 24 h against binding buffer (20-mM HEPES, pH 7.5) using a dialysis cassette with 10-kDa MWCO (Pierce). Lyophilized Cx-SAM was dissolved in the binding buffer at a final concentration of 1.3 mM. SAM was purchased from Sigma and dissolved in binding buffer at a final concentration of 10 mM. Prior to use, all titration samples were centrifuged for 20 min at 4°C. Isothermal titration calorimetry (ITC) experiments were performed at 15°C using an auto-ITC200 (MicroCal, LLC, Northhampton, MA, USA) in which the reaction cell (202.8 μl) containing CmoB (50 μM and 370 μM for Cx-SAM and SAM, respectively) was titrated with 40 × 1-μl injections of 1.3-mM Cx-SAM or 6.7-mM SAM with an equilibration time of 180 s. Raw injection traces were integrated over time, normalized per mol of ligand injected and corrected for the heat of dilution obtained from the plateau of a titration curve. Titration data were analyzed using a single-site model in Origin (version X) and Igor Pro 5/6. […] Based on the chemical synthesis, the Cx-SAM utilized in the binding assay is a racemic mixture, of which only the S-isomer is capable of acting as a substrate/ligand for CmoB. Therefore, the stoichiometry was fixed at 1:1 and the activity of the ligand was introduced as a fitting parameter for Cx-SAM.

CmoB Y200A mutant = molecular target: T2, CmoB Y200A mutant (Escherichia coli, UniProt P76291, Y200A); experiment: Isothermal titration calorimetry, Y200A mutant CmoB; format: binding
T2 construct: vector LIC-pET30a) (cleaved yes); made in house; host or cells: Escherichia coli BL21 (DE3)
T2 sequence (P76291 whole entry Y200A): as the sequence (P76291 whole entry R315A) above, with Y200A, A315R counted along it
Description: as §1

CmoB K91A mutant = molecular target: T3, CmoB K91A mutant (Escherichia coli, UniProt P76291, K91A); experiment: Isothermal titration calorimetry, K91A mutant CmoB; format: binding; conditions: K91A
T3 construct: vector LIC-pET30a) (cleaved yes); made in house; host or cells: Escherichia coli BL21 (DE3)
T3 sequence (P76291 whole entry K91A): as the sequence (P76291 whole entry R315A) above, with K91A, A315R counted along it
Description: as §1
The titration curve was analyzed using macroscopic binding constants and enthalpies describing binding of n-molecules of Cx-SAM to tetrameric mutant CmoB. Initially, the titration curve was analyzed with all possible values of n (=1~4). […] Therefore, the titration curve was analyzed using three sets of binding constants and enthalpies (Supplementary Table 2). The fitted values of the macroscopic binding constants were compared to those expected for a case of non-cooperative binding. For both cooperative and non-cooperative binding, K1 is given by 4Ksite where 4 accounts for the number of ligand binding sites in teterameric CmoB (i.e., statistical factor) and Ksite describes the “intrinsic” affinity of each site. Then, Ksite=3.6x10^4 M^-1. The fitted value of K2 is ~ 8.4-fold higher than that calculated for the case of non-cooperative binding (6Ksite^2=7.7x10^9 M^-2), indicating positive cooperativity involved in binding of the second Cx-SAM. Since the population of K91A with three Cx-SAMs bound is negligible, binding of the third Cx-SAM is deduced to be negatively cooperative.
A possible molecular explanation for such heterogeneous cooperativity involved in the interaction between K91A and Cx-SAM is the presence of (at least) two different types of interface between the subunits in tetrameric K91A which is consistent with the structural model of the CmoB tetramer. In this model (Supplementary Figure 9), the four ligand binding sites are initially equivalent, but binding of the first ligand to any of these four sites differentially affects (increases and decreases) the affinities of the neighboring sites for the second ligand through the different subunit interfaces. This model is a variation of the classical “square” model used in the analysis of the interaction between hemoglobin and oxygen(2) and provides a molecular description of the fitted macroscopic binding constants in terms of the intrinsic affinity (Ksite) and two types of cooperativity (ω+ and ω-): K1=4Ksite; K2=2Ksite^2(1+ω++ω-); K4=Ksite^4(ω+ω-)^2. Then, Ksite=3.6x10^4 M^-1, ω+=23.8, and ω-=0.4. The value of ω is equivalent to a fold-change in the Cx-SAM affinity of a binding site in tetrameric K91A when its neighboring site is already occupied by Cx-SAM.
^aIn this model, the interaction is described by a set of binding events where n-molecules of Cx-SAM bind tetrameric CmoB (K91A) with the corresponding binding constants (Kn) and enthalpies (∆Hn°). Initially, the titration curve was analyzed by this model including all possible values of n (=1~4). […] Therefore, the titration curve was analyzed using three sets of binding constants and enthalpies.

wild-type CmoB [1] = molecular target: T4, wild-type CmoB (Escherichia coli, UniProt P76291); experiment: Isothermal titration calorimetry, wild-type CmoB; format: binding
T4 construct: vector LIC-pET30a) (cleaved yes); made in house; host or cells: Escherichia coli BL21 (DE3)
Description: as §1

wild-type CmoB [2] = molecular target: T4, wild-type CmoB; experiment: In vitro LC-MS-based alkyl transfer assay, wild-type CmoB; format: biochemical
Description: The assay solution for SAM-dependent mo5U formation contained 10-mM Tris-HCl (pH 8.0), 4-mM MgCl2, 0.2-mM SAM and 20–25 μg (∼20 μM) of total tRNA prepared from cmoB-mutant E. coli cells in 50 μl. Reaction conditions for Cx-SAM-dependent cmo5U formation assay were identical, with the exception that10-μM Cx-SAM was used in place of SAM. Assays were initiated by addition of 0.1–2-μM CmoB to the above mixtures and subsequently incubated at the room temperature. The reaction was terminated by the addition of 0.1-mg/ml P1 nuclease, followed by incubation at 60°C for at least 1 h. […] Hydrolyzed nucleotides were directly applied to HPLC without further processing for LC-MS analysis as described above.

[3] = molecular target: the molecule itself; experiment: AUC; sedimentation velocity, g(s*) distribution fitted to a single-species model; with or without Cx-SAM or SAM

In the case of `C[S+](CC[C@H](N)C(=O)[O-])C[C@H]1O[C@@H](n2cnc3c(N)ncnc32)[C@H](O)[C@@H]1O` (some centres unmarked) [SAM, reference compound], the Kd (CmoB R315A mutant) is reported as 140 ± 7.3 µM, the “K (binding constant)” value (CmoB R315A mutant; ITC, 15°C, single-site model, R315A) is reported as 7.1 ± 0.4 x 10^3 M^−1 and the “ΔH°” value (CmoB R315A mutant; ITC, R315A) is reported as -11.1 ± 0.2 kcal/mol. The “ΔG°” value (CmoB R315A mutant; ΔG° = −RT lnK, R315A) was -5.1 ± 0.1 kcal/mol, the “ΔS°” value (CmoB R315A mutant; ΔS° = (ΔH°−ΔG°)/T, R315A) was −21.0 ± 0.8 cal/mol/deg and the Kd (CmoB Y200A mutant) was > 119 µM. For the same molecule, the “K (binding constant)” value (CmoB Y200A mutant; ITC, 15°C, single-site model, Y200A) was “N.D.^e (< 8.4 × 10^3) M^−1”, the “ΔG°” value (CmoB Y200A mutant; ΔG° = −RT lnK, Y200A) was >-5.1 kcal/mol and the “K (binding constant)” value (CmoB K91A mutant; ITC, 15°C, single-site model) was 9.1 ± 0.2 × 10^4 M^−1 and 9.1 ± 0.2 x 10^4 M^−1. The “ΔH°” value (CmoB K91A mutant; ITC) was -6.4 ± 0.1 kcal/mol, the Kd (CmoB K91A mutant; Kd, ITC, 15°C) was 11 ± 0.2 µM and the “ΔG°” value (CmoB K91A mutant; ΔG° = −RT lnK) was -6.5 ± 0.1 kcal/mol. The “ΔS°” value (CmoB K91A mutant; ΔS° = (ΔH°−ΔG°)/T) was 0.4 ± 0.1 cal/mol/deg, the “ΔH°” value (wild-type CmoB [1]; ITC) was -0.6 ± 0.1 kcal/mol and the “K (binding constant)” value (wild-type CmoB [1]; ITC, 15°C, single-site model) was 4.8 ± 2.0 × 10^3 M^−1 and 4.8 ± 2.0 x 10^3 M^−1. The “TΔS°” value (wild-type CmoB [1]; ITC, text) was 4.23 ± 0.27 kcal/mol, the “ΔG°” value (wild-type CmoB [1]; ITC, text) was -4.85 ± 0.24 kcal/mol and the “ΔH°” value (wild-type CmoB [1]; ITC, text) was -0.62 ± 0.12 kcal/mol. For the same molecule, the “ΔS°” value (wild-type CmoB [1]; ITC, text) was 14.7 ± 0.9 cal·mol^−1·deg^−1, the Kd (wild-type CmoB [1]; ITC) was 210 ± 90 µM and the Kd (wild-type CmoB [1]; ITC, 15°C) was 200 µM and 208 µM. The “ΔG°” value (wild-type CmoB [1]; ΔG° = −RT lnK) was -4.9 ± 0.2 kcal/mol, the “ΔS°” value (wild-type CmoB [1]; ΔS° = (ΔH°−ΔG°)/T) was 14.7 ± 0.9 cal/mol/deg and the “Time to observed mo5U formation” value (wild-type CmoB [2]; 2-μM wild-type CmoB, 0.2-mM SAM as alkyl donor) was 5 h. For the same molecule, the “Time to detected trace mo5U with both donors present” value (wild-type CmoB [2]; 10-μM Cx-SAM and 2-mM SAM) was 2 h.

B1: CmoB carboxymethyl transferase (enzyme, Escherichia coli (BL21 genomic DNA))
chain: MIDFGNFYSLIAKNHLSHWLETLPAQIANWQREQQHGLFKQWSNAVEFLPEIKPYRLDLLHSVTAESEEPLSAGQIKRIETLMRNLMPWRKGPFSLYGVNIDTEWRSDWKWDRVLPHLSDLTGRTILDVGCGSGYHMWRMIGAGAHLAVGIDPTQLFLCQFEAVRKLLGNDQRAHLLPLGIEQLPALKAFDTVFSMGVLYHRRSPLEHLWQLKDQLVNEGELVLETLVIDGDENTVLVPGDRYAQMRNVYFIPSALALKNWLKKCGFVDIRIADVSVTTTEEQRRTEWMVTESLADFLDPHDPGKTVEGYPAPKRAVLIARKP
notes: CmoB of Escherichia coli, cmoB gene amplified from genomic DNA of E. coli BL21 and cloned into LIC-pET30a; calculated monomer mass 37.01 kD; 319-323 C-alphas aligned per protomer in the structures; A selenomethionine-substituted form (made in E. coli B834, purified the same way) gave the experimental phases; also called wild-type CmoB; source: E. coli BL21 (DE3), purified (Ni-agarose, thrombin …)
For B1, the “stoichiometry N” value [3] was 4.
